From US9605000B2, “Spiro azetidine isoxazole derivatives and their use as SSTR antagonists” (Takeda Pharmaceutical Company Limited, priority 2013, dated 2017) come the findings set out here.

Data set [1] deals with C57BL/6J mice. As to the kind of experiment: Evaluation of glucose lowering effect (oral glucose load in high fat diet fed mice, Test Example 3). It is filed as in vivo. To be noted: 3 mg/kg oral, male C57BL/6J mice on HFD, Mean ± SD, n = 6. Here is the method: Evaluation of Glucose Lowering Effect
8-week-old male C57BL/6J mice were purchased from CLEA Japan, Inc. After feeding high fat diet (HFD; D12492, Research Diets, Inc.) for a week, weight of mice is measured a day before the experiment, and the mice were separated in groups based on the weight. On the day of experiment, vehicle (0.5% methyl cellulose solution) or test drug (0.5% methyl cellulose suspension) were orally administered 1 hour after fasting was started and glucose load was given orally 9 hours after fasting was started. Just before the glucose load, Blood Glucose (BG) was measured by drawing blood from the tail (pre), and BG was measured again from the tail 10 minutes, 30 minutes, 60 minutes and 120 minutes after the glucose load. All values were indicated with Mean±Standard Deviation (SD), and in the statistical analysis, Williams test was used for the case of equal variance and Shirley-Williams test was used for non-equal variance in the comparison of the vehicle group and test drug group.

Data set [2] concerns the target hERG (Homo sapiens, UniProt Q12809). As to the kind of experiment: hERG activity measurement by IonWorks Quattro (Test Example 4). The data set is classed as cell-based. As to conditions: 5 minutes exposure, CHO cells stably expressing hERG, IonWorks Quattro PPC mode. The method, then: hERG Activity Measurement by IonWorks Quattro
A cell strain CYL3038 having hERG stably expressed in CHO cells was purchased from Millipore LIMITED. A subculture of CYL3038 was prepared using Ham's F-12 medium containing 10% FBS and 500 μg/mL Geneticin, under the presence of 5% CO2 at 32° C. hERG current inhibition was measured by PPC mode of IonWorks Quattro (Molecular Devices, Inc.). As an extracellular fluid, PBS (+) was used. As an intracellular fluid, 20 mM HEPES buffer (pH 7.3) containing 140 mM KCl, 2 mM MgCl2 and 1 mM EGTA was used, and the cell was perforated by amphotericin. As the voltage protocol, holding potential was set to −80 mV, prepulsevoltage was set to 40 mV (2 seconds) and test pulsevoltage was set to −50 mV (2 seconds). Current values before and after addition of compound are respectively recorded as pre-compound hERG current and post-compound hERG current.
For orientation: hERG is a cardiac potassium channel; its block is linked to QT prolongation.

In data set [3] the target is T1, human SSTR5 (Homo sapiens, UniProt P35346).
T1 construct: expressed in transfected cells
T1 sequence (P35346 whole entry): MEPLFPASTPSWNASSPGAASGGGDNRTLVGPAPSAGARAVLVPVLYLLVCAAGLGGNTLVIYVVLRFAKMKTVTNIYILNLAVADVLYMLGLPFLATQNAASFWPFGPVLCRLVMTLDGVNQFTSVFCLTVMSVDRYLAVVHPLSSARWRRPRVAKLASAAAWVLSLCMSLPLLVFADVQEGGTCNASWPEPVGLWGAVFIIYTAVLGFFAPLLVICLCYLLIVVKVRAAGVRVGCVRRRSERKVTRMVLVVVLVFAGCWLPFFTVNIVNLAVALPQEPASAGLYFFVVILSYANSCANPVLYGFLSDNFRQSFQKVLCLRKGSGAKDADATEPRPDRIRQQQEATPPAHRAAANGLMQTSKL
As to the kind of experiment: Human SSTR5 antagonist activity using intracellular cAMP concentration as indicator (somatostatin 28, Test Example 2). It is filed as cell-based. To be noted: 1 μM test compound; somatostatin 28 and 0.3 μM forskolin; CHO (dhfr-) cells expressing human SSTR5; HTRF cAMP; read-out: Inhibition rate (%) with respect to SSTR5 in concentration of 1 μM. The method, then:
Evaluation of Human SSTR5 Antagonist Activity Using an Intracellular cAMP Concentration as an Indicator
Measurement of the intracellular cAMP concentration was performed using a HTRF cAMP dynamic 2 kit (manufactured by Cisbio). A test compound which was diluted with an assay buffer (5 mM HEPES (pH 7.5) (manufactured by Invitrogen Corp.), 0.1% fatty-acid free BSA (manufactured by Sigma-Aldrich, Inc.), HBSS (manufactured by Invitrogen Corp.) containing 500 μM IBMX (manufactured by Wako Pure Chemical Industries, Ltd) was added by 2 μL/well to a 384 well white plate (manufactured by Greiner) such that a final concentration become 1 μM. A frozen stock, which was stably expressed dihydrofolate reductase-deficient CHO (dhfr-) cells in which human SSTR5 gene (Accession No. NM001053) was melted in a thermostatic chamber at 37° C., and it was suspended on a medium of subculture (medium prepared from MEM alpha (manufactured by Wako Pure Chemical Industries, Ltd.), 10% dialyzed serum (manufacture by Gemini Co., Ltd.) and 50 μg/mL gentamicin (manufactured by Invitrogen Corp.). After centrifuging the cell suspension, the cell suspension was resuspended using the assay buffer, and the resultant was added to each well by 2 μL/well to be 4000 cells/well. After a test compound and cells were incubated for 15 minutes. An assay buffer which contains 0.1 nM of somatostatin 28 (manufactured by Toray Research Center) and 0.3 μM of forskolin (manufactured by Wako Pure Chemical Industries, Ltd) as a final concentration was added by […], and incubation was performed for 30 minutes at room temperature. Each of cAMP-d2 and anti-cAMP-cryptate was added by 3 μL/well, it was allowed to stand for 60 minutes at room temperature, and FRET (Fluorescence resonance energy transfer) intensity was measured using Multi-label reader Envision (manufactured by Perkin Elmer Inc.). Using the calibration curve prepared from the FRET intensity of well groups in which cAMP as arbitrary concentration was added to an assay buffer, FRET intensity of wells in which a test compound group was added was converted into cAMP concentration. Inhibitory activity of compounds was calculated using the following equation. Inhibitory activity (%)=(C−B)/(A−B)×100 A: cAMP concentration calculated from wells in which 0.3 μM of forskolin is added B: cAMP concentration calculated from wells in which 0.3 μM of forskolin and 1 nM of somatostatin 28 are added C: cAMP concentration wells in which 0.3 μM of forskolin, 1 nM of somatostatin 28 and 1 μM of test compound are added
Inhibition rates (%) are described in Table 3 with respect to SSTR5 in concentration of 1 μM of a test compound.
(In general: TR-FRET usually uses a lanthanide donor and a delayed reading to cut background.)

hERG, sequence (Q12809 whole entry): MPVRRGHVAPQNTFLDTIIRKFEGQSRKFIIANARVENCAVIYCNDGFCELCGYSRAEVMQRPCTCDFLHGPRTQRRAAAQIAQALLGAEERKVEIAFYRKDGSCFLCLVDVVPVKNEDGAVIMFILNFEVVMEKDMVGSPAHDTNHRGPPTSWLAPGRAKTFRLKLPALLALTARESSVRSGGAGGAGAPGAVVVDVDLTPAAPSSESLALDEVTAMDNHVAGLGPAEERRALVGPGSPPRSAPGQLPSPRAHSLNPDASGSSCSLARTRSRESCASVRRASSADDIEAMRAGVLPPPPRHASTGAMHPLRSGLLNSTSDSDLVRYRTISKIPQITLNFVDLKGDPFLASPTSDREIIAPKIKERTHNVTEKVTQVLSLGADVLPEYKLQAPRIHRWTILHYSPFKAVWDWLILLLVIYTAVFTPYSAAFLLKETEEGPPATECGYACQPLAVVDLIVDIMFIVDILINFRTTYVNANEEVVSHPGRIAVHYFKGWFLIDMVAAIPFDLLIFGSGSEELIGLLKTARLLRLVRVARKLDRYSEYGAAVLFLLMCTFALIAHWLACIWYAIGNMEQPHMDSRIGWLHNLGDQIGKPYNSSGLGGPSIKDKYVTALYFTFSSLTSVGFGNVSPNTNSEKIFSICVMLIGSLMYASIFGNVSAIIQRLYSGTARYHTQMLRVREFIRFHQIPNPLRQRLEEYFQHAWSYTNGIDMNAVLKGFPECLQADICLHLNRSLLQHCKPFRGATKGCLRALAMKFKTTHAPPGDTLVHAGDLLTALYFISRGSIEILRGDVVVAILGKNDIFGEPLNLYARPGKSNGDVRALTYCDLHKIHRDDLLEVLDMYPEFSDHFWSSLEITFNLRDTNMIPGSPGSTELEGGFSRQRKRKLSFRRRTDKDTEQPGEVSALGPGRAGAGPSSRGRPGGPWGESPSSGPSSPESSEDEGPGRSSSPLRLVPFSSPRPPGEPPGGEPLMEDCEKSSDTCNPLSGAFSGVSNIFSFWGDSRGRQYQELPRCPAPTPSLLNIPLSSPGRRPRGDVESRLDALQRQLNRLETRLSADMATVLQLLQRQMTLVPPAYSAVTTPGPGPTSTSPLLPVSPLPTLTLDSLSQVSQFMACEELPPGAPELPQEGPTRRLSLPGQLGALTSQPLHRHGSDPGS

For `COc1c(CN2CC3(CC(N4CCC(C)(C(=O)O)CC4)=NO3)C2)cc(C2CC2)c(-c2ccc(F)cc2)c1Cl` [Example 238, 1-(2-((2-Chloro-6-cyclopropyl-4′-fluoro-3-methoxybiphenyl-4-yl)methyl)-5-oxa-2,6-diazaspiro[3.4]oct-6-en-7-yl)-4-methylpiperidine-4-carboxylic acid], the “Blood Glucose (BG) 10 min” value in data set [1] (10 minutes after glucose load) stood at 261 ± 42. For the same compound, the “Blood Glucose (BG) 30 min” value in data set [1] (30 minutes after glucose load) was 350 ± 49. In addition, in data set [1] (60 minutes after glucose load), the “Blood Glucose (BG) 60 min” value came out at 345 ± 38. Also, the “Blood Glucose (BG) 120 min” value in data set [1] (120 minutes after glucose load) amounted to 188 ± 22. For the same compound, the AUCpre-120 min in data set [1] (blood glucose AUC pre to 120 min after glucose load) is 576 ± 52. The “Blood Glucose (BG) pre” value in data set [1] (just before glucose load) was 148 ± 19. The “% hERG inhibition (10 μM)” value in data set [2] stood at 10%. The inhibition at 1 µM in data set [3] stood at 99%.

With `CCOc1cc(C2CC2)c(C2CC2)cc1CN1CC2(CC(N3CCC(C)(C(=O)O)CC3)=NO2)C1` [Example 250, 1-(2-(4,5-Dicyclopropyl-2-ethoxybenzyl)-5-oxa-2,6-diazaspiro[3.4]oct-6-en-7-yl)-4-methylpiperidine-4-carboxylic acid], the inhibition at 1 µM in data set [3] is 98%.

Turning to `CC(C)Oc1c(CN2CC3(CC(N4CCC(C)(C(=O)O)CC4)=NO3)C2)cc(C2CC2)c(C2CC2)c1F` [Example 256, 1-(2-(4,5-Dicyclopropyl-3-fluoro-2-isopropoxybenzyl)-5-oxa-2,6-diazaspiro[3.4]oct-6-en-7-yl)-4-methylpiperidine-4-carboxylic acid], the inhibition at 1 µM in data set [3] came out at 121%.

On to `CCOc1c(CN2CC3(CC(N4CCC(C)(C(=O)O)CC4)=NO3)C2)cc(C2CC2)c(C2CC2)c1F` [Example 257, 1-(2-(4,5-Dicyclopropyl-2-ethoxy-3-fluorobenzyl)-5-oxa-2,6-diazaspiro[3.4]oct-6-en-7-yl)-4-methylpiperidine-4-carboxylic acid], for which the inhibition at 1 µM in data set [3] came to 117%.

For the compound `COc1c(CN2CC3(CC(N4CCC(C)(C(=O)O)CC4)=NO3)C2)cc(C2CC2)c(-c2ccc(F)cc2F)c1Cl` [Example 258, 1-(2-((2-Chloro-6-cyclopropyl-2′,4′-difluoro-3-methoxybiphenyl-4-yl)methyl)-5-oxa-2,6-diazaspiro[3.4]oct-6-en-7-yl)-4-methylpiperidine-4-carboxylic acid], the inhibition at 1 µM in data set [3] was found to be 124%.

On to `COc1c(CN2CC3(CC(N4CCC(C)(C(=O)O)CC4)=NO3)C2)cc(C2CC2)c(-c2ccc(F)cc2F)c1F` [Example 259, 1-(2-((6-Cyclopropyl-2,2′,4′-trifluoro-3-methoxybiphenyl-4-yl)methyl)-5-oxa-2,6-diazaspiro[3.4]oct-6-en-7-yl)-4-methylpiperidine-4-carboxylic acid], for which the inhibition at 1 µM in data set [3] came to 90%.

On to `CCOc1c(CN2CC3(CC(N4CCC(C(=O)O)CC4)=NO3)C2)cc(C2CC2)c(-c2ccc(F)cc2)c1F` [Example 261, 1-(2-((6-Cyclopropyl-3-ethoxy-2,4′-difluorobiphenyl-4-yl)methyl)-5-oxa-2,6-diazaspiro[3.4]oct-6-en-7-yl)piperidine-4-carboxylic acid], for which the inhibition at 1 µM in data set [3] came out at 92%.

In the case of `CCC1(C(=O)O)CCN(C2=NOC3(C2)CN(Cc2cc(C4CC4)c(-c4ccc(F)cc4F)c(Cl)c2OC)C3)CC1` [Example 262, 1-(2-((2-Chloro-6-cyclopropyl-2′,4′-difluoro-3-methoxybiphenyl-4-yl)methyl)-5-oxa-2,6-diazaspiro[3.4]oct-6-en-7-yl)-4-ethylpiperidine-4-carboxylic acid], the inhibition at 1 µM in data set [3] was 100%.

Turning to `COc1c(CN2CC3(CC(N4CCC(C)(C(=O)O)CC4)=NO3)C2)cc(C2CC2)c(-c2ccc(F)cc2)c1F` [Example 265, 1-(2-((6-Cyclopropyl-2,4′-difluoro-3-methoxybiphenyl-4-yl)methyl)-5-oxa-2,6-diazaspiro[3.4]oct-6-en-7-yl)-4-methylpiperidine-4-carboxylic acid], the “% hERG inhibition (10 μM)” value in data set [2] is 18%. The inhibition at 1 µM in data set [3] is 92%.

With `COc1c(CN2CC3(CC(N4CCC(C(=O)O)CC4)=NO3)C2)cc(C2CC2)c(-c2ccc(F)cc2)c1F` [Example 266, 1-(2-((6-Cyclopropyl-2,4′-difluoro-3-methoxybiphenyl-4-yl)methyl)-5-oxa-2,6-diazaspiro[3.4]oct-6-en-7-yl)piperidine-4-carboxylic acid], in data set [3], the inhibition at 1 µM was 88%.
